# In US7462478B2, “Polynucleotide encoding 2-hydroxyisoflavanone dehydratase and application of the same” (Nihon University, priority 2003, dated 2008):
# “And” between values parts separate entries of the source, which are not always exact repeats. Identical values can stand only once.
# How the values were obtained:
# [1] = system: Carboxylesterase from pig liver; assay: Carboxylesterase activity of pig liver carboxylesterase (positive control); assay type: biochemical; details: rate of p-nitrophenol production, 30° C., absorbance at 400 nm
# Description: (§1) The specific carboxylesterase activities of recombinant licorice HIDM and soybean HIDH proteins were calculated from the generation rate of p-nitrophenol measured at 30° C. by an absorbance at 400 nm in 1.5 ml of a 50-mM Tris-HCl buffer containing 150 mM of NaCl and 750 nmol of p-nitrophenyl butyrate (Heymann 1981). Commercially-available pig liver carboxylesterase (Sigma Corporation) was used as a positive control. Thermally-denatured (100° C., 10 minutes) licorice HIDM, soybean HIDH, and pig liver carboxylesterase protein were analyzed as negative controls, respectively.
# [2] = biological target: T1, recombinant soybean HIDH (Glycine max, UniProt Q5NUF3); assay: Carboxylesterase activity of recombinant soybean HIDH; assay type: biochemical
# T1 construct: the NdeI-BamHI fragment of soybean cDNA (HIDH) was also subcloned into the corresponding sites of the pET28a; made in house; host or cells: E. coli BL21 (DE3), vector pET28a, purified with HisTrap Kit
# T1 sequence (Q5NUF3 1-319): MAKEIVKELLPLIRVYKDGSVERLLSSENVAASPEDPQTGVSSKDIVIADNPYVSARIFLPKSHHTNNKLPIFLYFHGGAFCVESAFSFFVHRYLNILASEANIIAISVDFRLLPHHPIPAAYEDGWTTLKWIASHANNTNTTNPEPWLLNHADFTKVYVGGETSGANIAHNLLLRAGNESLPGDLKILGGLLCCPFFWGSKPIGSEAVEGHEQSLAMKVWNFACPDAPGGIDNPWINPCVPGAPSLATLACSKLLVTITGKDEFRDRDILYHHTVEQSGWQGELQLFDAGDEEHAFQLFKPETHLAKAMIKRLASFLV
# Description: as §1
# [3] = biological target: T2, recombinant licorice HIDM (Glycyrrhiza echinata, UniProt Q5NUF4); assay: Carboxylesterase activity of recombinant licorice HIDM; assay type: biochemical
# T2 construct: The NdeI-BamHI fragment of the PCR product from licorice HIDM was cloned into the corresponding sites of pET28a; made in house; host or cells: E. coli BL21 (DE3), vector pET28a, purified with HisTrap Kit
# T2 sequence (Q5NUF4 1-328): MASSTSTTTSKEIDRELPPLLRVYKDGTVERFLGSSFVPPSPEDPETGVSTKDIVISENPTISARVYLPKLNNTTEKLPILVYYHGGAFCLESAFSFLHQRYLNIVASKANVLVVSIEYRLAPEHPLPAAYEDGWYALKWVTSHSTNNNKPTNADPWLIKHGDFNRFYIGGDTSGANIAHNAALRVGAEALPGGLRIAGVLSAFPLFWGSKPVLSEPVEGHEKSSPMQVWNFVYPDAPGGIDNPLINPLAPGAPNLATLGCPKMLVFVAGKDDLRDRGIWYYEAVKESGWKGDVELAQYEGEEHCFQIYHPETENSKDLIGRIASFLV
# Description: as §1
# [4] = biological target: T3, recombinant licorice HIDM (2-hydroxyisoflavanone dehydratase) (Glycyrrhiza echinata, UniProt Q5NUF4); assay: 2-hydroxyisoflavanone dehydratase assay, recombinant licorice HIDM; assay type: biochemical; details: for Specific activity, Licorice Recombinant protein: purified recombinant protein, rate of isoflavone production, mean ± SD of three experiments
# T3 construct: The NdeI-BamHI fragment of the PCR product from licorice HIDM was cloned into the corresponding sites of pET28a; made in house; host or cells: E. coli BL21 (DE3), vector pET28a, purified with HisTrap Kit
# T3 sequence (Q5NUF4 1-328): T2 sequence (Q5NUF4 1-328)
# Description: (§2) An enzyme preparation was added to 2,7,4′-trihydroxyisoflavanone, 2,7-dihydroxy-4′-methoxyisoflavanone, or 2,5,7,4′-tetrahydroxyisoflavanone (5 nmol each) in 2-methoxyethanol so as to be in a total volume of 100 μl, and then the whole was incubated at 30° C. for 10 minutes.
# The assay of 2,5,7-trihydroxy-4′-methoxyisoflavanone dehyderatase (biochanin A synthetase) was carried out as follows. 2,5,7,4′-tetrahydroxyisoflavanone (10 nmol) dissolved in 2-methoxyethanol was incubated together with licorice HI4′OMT (1 μg) and 1 μmol of S-adenosyl-L-methionine (SAM) at 30° C. for 15 minutes.
# (§3) A concentrated ethyl acetate extract was incubated with recombinant licorice HIDM (1 μg) at 30° C. for 10 minutes. An ethyl acetate extract from the mixture was analyzed by high-performance liquid chromatography (HPLC). The HPLC for both daidzein and formononetin analysis was carried out using a Capcell pak C18 MG column (4.6×150 mm; Shiseido Co., Ltd.) at 40° C. (flow volume=0.8 ml/min) (Non-Patent Document 12) with a linear gradient elution for 40 minutes from 35% to 55% methanol in 3% aqueous acetic acid. 5-Hydroxyisoflavones were analyzed using a Capcell pak C18MG column (4.6×150 mm; Shiseido Co., Ltd.) with a 50% methanol aqueous solution (for genistein) or a 55% methanol aqueous solution (for biochanin A) at 40° C. (flow rate=0.8 ml/min).
# (§4) The purified recombinant protein (approximately 10 ng of protein) and cell-free extracts of licorice and soybean (approximately 10 μg of protein) were used to determine their specific activity. The concentration of isoflavone was calculated from the HPL peak area of the standard sample of each of daidzein, formononetin, and genistein.
# (§5) The NdeI-BamHI fragment of the PCR product from licorice HIDM was cloned into the corresponding sites of pET28a (Novagen Ltd.). In addition, the NdeI-BamHI fragment of soybean cDNA (HIDH) was also subcloned into the corresponding sites of the pET28a. The expression and purification of recombinant 2-hydroxyisoflavanone dehydratases were carried out by the following procedures (Non-Patent Document 12). The E. coli BL21 (DE3) cells transformed with the vector containing HIDM or HIDH were incubated up to OD600=0.4 in a LB/ampicillin medium supplemented with 20 ml of 50 μg/ml kanamycin or ampicillin at 30° C. IPTG was added to the culture so as to be a final concentration of 1.0 mM and the whole was incubated at 30° C. for six hours. The licorice HIDM and soybean HIDH were purified from the crude extracts of HIDM and HIDH-expression E. coli using HisTrap Kit (Amersham Biosciences Corporation), respectively.
# [5] = biological target: T4, recombinant soybean HIDH (2-hydroxyisoflavanone dehydratase) (Glycine max, UniProt Q5NUF3); assay: 2-hydroxyisoflavanone dehydratase assay, recombinant soybean HIDH; assay type: biochemical; details: for Specific activity, Soybean Recombinant protein: purified recombinant protein, rate of isoflavone production, mean ± SD of three experiments
# T4 construct: the NdeI-BamHI fragment of soybean cDNA (HIDH) was also subcloned into the corresponding sites of the pET28a; made in house; host or cells: E. coli BL21 (DE3), vector pET28a, purified with HisTrap Kit
# T4 sequence (Q5NUF3 1-319): T1 sequence (Q5NUF3 1-319)
# Description: as §2, §3, §4, §5
# [6] = system: 2-hydroxyisoflavanone dehydratase in cell-free extract of soybean seedling; assay: 2-hydroxyisoflavanone dehydratase assay, soybean crude extract; assay type: biochemical, Glycine max; details: for Specific activity, Soybean Crude extract: rate of isoflavone production, 30° C., 10 minutes, mean ± SD of three experiments
# Description: (§6) All procedures were carried out at 4° C. Licorice cells (10 g) after elicitor treatment (for 24 hours) or 1-week old soybean raised from seeds (10 g) were homogenized in a mortar with 10 ml of a 100-mM potassium phosphate buffer (pH 7.5) containing 10% sucrose and 14 mM of 2-mercaptoethanol and with sea sand (2.5 g). The resulting homogenate was filtered through gauze and then centrifuged at 10,000×g for 10 minutes. Supernatant was mixed with 2.5 g of Dowex 1-X2 (equilibrated with a 100-mM potassium phosphate buffer), followed by standing for 20 minutes. The solution obtained from the filtration was fractionated with ammonium sulfate and a 30-80% saturated fraction was then demineralized through a Sephadex G-25 column and dissolved in a 100-mM potassium phosphate buffer (pH 7.5) containing 10% sucrose and 14-mM 2-mercaptoethanol, followed by being used in the assay (approximately 600 μg/ml of protein).
# as §2, §3, §4
# [7] = biological target: T5, 2-hydroxyisoflavanone dehydratase in cell-free extract of licorice cells (strain AK-1) (Glycyrrhiza echinata, UniProt Q5NUF4); assay: 2-hydroxyisoflavanone dehydratase assay, licorice crude extract; assay type: biochemical; details: for Specific activity, Licorice Crude extract: rate of isoflavone production, 30° C., 10 minutes, mean ± SD of three experiments
# T5 construct: Licorice cells (10 g) after elicitor treatment (for 24 hours) or 1-week old soybean raised from seeds (10 g) were homogenized; endogenous in cells; host or cells: elicitor-treated licorice cultured cells (strain AK-1); 30-80% ammonium sulfate fraction of the cell-free extract
# T5 sequence (Q5NUF4 1-328): T2 sequence (Q5NUF4 1-328)
# Description: as §6, §2
# as §3, with “(flow volume=0.8 ml/min) (Non-Patent Document 12) with a linear gradient elution for 40 minutes from 35% to 55% methanol in 3% aqueous acetic acid.” left out, “(flow rate=0.8 ml/min).” left out
# as §4
# [8] = system: Carboxylesterase from pig liver; assay: 2-hydroxyisoflavanone dehydratase assay, carboxylesterase from pig liver; assay type: biochemical
# Description: as §2
# as §3, with “(flow volume=0.8 ml/min) (Non-Patent Document 12) with a linear gradient elution for 40 minutes from 35% to 55% methanol in 3% aqueous acetic acid.” left out, “(flow rate=0.8 ml/min).” left out
# as §1, with “Commercially-available pig liver carboxylesterase (Sigma Corporation) was used as a positive control.” left out
# [9] = system: 2-hydroxyisoflavanone dehydratase of P. lobata; details: Hakamatsuka et al., 1998; cited from earlier work
# [10] = rate of p-nitrophenol production, 30° C., absorbance at 400 nm
smiles,measurement,setting,value
CCCC(=O)Oc1ccc([N+](=O)[O-])cc1 [p-nitrophenyl butyrate],"Specific carboxylesterase activity, Carboxylesterase from pig liver",[1],425 ± 7 (f) nkatal/mg
same,Carboxylesterase activity of recombinant soybean dehydratase,[2],weak activity
same,Carboxylesterase activity of soybean HIDH as fraction of the pig liver enzyme,[2],approximately 1/50
same,"Specific carboxylesterase activity, Soybean Recombinant protein",[2]; [10],7.20 ± 0.4 (f) nkatal/mg
same,Carboxylesterase activity of recombinant licorice dehydratase,[3],weak activity
same,"Specific carboxylesterase activity, Licorice Recombinant protein",[3]; [10],0.32 ± 0.07 (f) nkatal/mg
"COc1ccc(C2C(=O)c3c(O)cc(O)cc3OC2O)cc1 (stereo not drawn) [2,5,7-trihydroxy-4′-methoxyisoflavanone]",Product detected by HPLC after incubation with licorice HIDM,"[4]; substrate made with HI4′OMT and SAM, HIDM 1 μg, 30° C., 10 minutes",biochanin A was detected
"O=C1c2c(O)cc(O)cc2OC(O)C1c1ccc(O)cc1 (stereo not drawn) [2,5,7,4′-tetrahydroxyisoflavanone]","Specific activity, Soybean Recombinant protein",[5],3.55 ± 0.6 nkatal/mg
same,Product formation by soybean HIDH (HPLC),[5]; recombinant soybean HIDH,catalyzed the production of genisein
same,"Specific activity, Soybean Crude extract",[6],19.6 ± 3 pkatal/mg
same,"Production of genistein, level with respect to the production of daidzein",[6]; soybean extract,approximately 1/10
"COc1ccc(C2C(=O)c3ccc(O)cc3OC2O)cc1 (stereo not drawn) [2,7-dihydroxy-4′-methoxyisoflavanone]","Specific activity, Licorice Crude extract",[7],123.0 ± 8 pkatal/mg
same,"Specific activity, Soybean Recombinant protein",[5],0.90 ± 0.1 nkatal/mg
same,"Specific activity, Soybean Crude extract",[6],97.4 ± 10 pkatal/mg
same,"Specific activity, Licorice Recombinant protein",[4],52.1 ± 1.5 nkatal/mg
same,"Specific activity of licorice HIDM, times as high as to 2,7,4′-trihydroxyisoflavanone",[4]; recombinant licorice HIDM,74 times
"O=C1c2ccc(O)cc2OC(O)C1c1ccc(O)cc1 (stereo not drawn) [2,7,4′-trihydroxyisoflavanone]","Activity (daidzein production), times as small as the production of formononetin","[7]; licorice extract, versus 2,7-dihydroxy-4′-methoxyisoflavanone",approximately 160 times
same,"Specific activity, Licorice Crude extract",[7],0.8 ± 0.03 pkatal/mg
same,"Specific activity, Soybean Recombinant protein",[5],43.6 nkatal/mg and 43.6 ± 4 nkatal/mg
same,Dehydration by carboxylesterase from pig liver,[8],did not dehydrate
same,"Specific activity, Carboxylesterase from pig liver (dehydration)",[8]; rate of isoflavone production,0 nkatal/mg
same,"Specific activity, Soybean Crude extract",[6],197.3 ± 15 pkatal/mg
same,Specific activity of dehydratase of P. lobata,[9],56.8 mkatal/kg protein
same,"Specific activity, Licorice Recombinant protein",[4],0.70 ± 0.08 nkatal/mg
